Key:
[1] = tested on: Trypanosoma brucei brucei; experiment: Antitrypanosomal activity against Trypanosoma brucei brucei 427 trypomastigotes assessed as reduction in parasite growth incubated for 48 hrs by resazurin dye based fluorescence assay; type: functional, organism-based; conditions: Trypanosoma brucei, 427, 48 h
[2] = Cytotoxicity against African green monkey Vero cells assessed as cell viability at 10 uM incubated for 48 hrs by MTT based colorimetric assay; type: toxicity; conditions: chlorocebus sabaeus, read-out: Activity
[3] = Cytotoxicity against African green monkey Vero cells assessed as cell viability at 5 uM incubated for 48 hrs by MTT based colorimetric assay; type: toxicity; conditions: chlorocebus sabaeus, read-out: Activity
[4] = Cytotoxicity against human hTERT-BJ cells assessed as cell viability at 1 uM incubated for 48 hrs by MTT based colorimetric assay; type: toxicity; conditions: read-out: Activity
[5] = Cytotoxicity against human hTERT-BJ cells assessed as cell viability at 10 uM incubated for 48 hrs by MTT based colorimetric assay; type: toxicity; conditions: read-out: Activity
[6] = Cytotoxicity against African green monkey Vero cells assessed as reduction in cell viability incubated for 48 hrs by MTT based colorimetric assay; type: toxicity; conditions: chlorocebus sabaeus
[7] = Cytotoxicity against African green monkey Vero cells assessed as cell viability at 1 uM incubated for 48 hrs by MTT based colorimetric assay; type: toxicity; conditions: chlorocebus sabaeus, read-out: Activity
hTERT-BJ = experiment: Cytotoxicity against human hTERT-BJ cells assessed as reduction in cell viability at 10 uM incubated for 48 hrs by MTT based colorimetric assay; type: toxicity
[8] = Selectivity index, ratio of CC50 for African green monkey Vero cells to IC50 for Antitrypanosomal activity against Trypanosoma brucei brucei 427 trypomastigotes; type: toxicity; conditions: read-out: Ratio CC50/IC50
[9] = Cytotoxicity against human hTERT-BJ cells assessed as cell viability at 5 uM incubated for 48 hrs by MTT based colorimetric assay; type: toxicity; conditions: read-out: Activity

IC50 [1]	Compound	other results
380 nM	CCOC(=O)c1cn(CCO)c2ccc(C(=O)/C=C/c3ccc([N+](=O)[O-])s3)cc2c1=O	–
1310 nM	CCOC(=O)c1cn(CC)c2ccc(C(=O)/C=C/c3ccc(Br)o3)cc2c1=O	–
970 nM	CCOC(=O)c1cn(CC)c2ccc(C(=O)/C=C/c3ccc([N+](=O)[O-])s3)cc2c1=O	–
500 nM	CCOC(=O)c1cn(Cc2ccccc2)c2ccc(C(=O)/C=C/c3ccc([N+](=O)[O-])o3)cc2c1=O	–
510 nM	O=C1/C(=C/c2ccc([N+](=O)[O-])o2)COc2ccccc21	–
600 nM	CCOC(=O)c1cn(CC)c2ccc(C(=O)/C=C/c3ccc([N+](=O)[O-])o3)cc2c1=O	–
360 nM	O=C1/C(=C/c2ccc([N+](=O)[O-])o2)CCc2ccccc21	–
10 nM	N=C(N)c1ccc(OCCCCCOc2ccc(C(=N)N)cc2)cc1 [PENTAMIDINE]	–
2410 nM	Cc1cccc(Cn2cc(C(=O)NCCN3CCNCC3)c(=O)c3cc(C(=O)/C=C/c4ccc([N+](=O)[O-])o4)ccc32)c1	–
15300 nM	CCOC(=O)c1cn(CC(N)=O)c2ccc(C(=O)/C=C/c3ccc([N+](=O)[O-])o3)cc2c1=O	–
3430 nM	COCCNC(=O)c1c[nH]c2ccc(C(=O)/C=C/c3ccc([N+](=O)[O-])o3)cc2c1=O	–
2090 nM	CCOC(=O)c1cn(CCO)c2ccc(C(=O)/C=C/c3ccc([N+](=O)[O-])o3)cc2c1=O	–

Compound	IC50 [1]	other results
COCCNC(=O)c1cn(Cc2ccccc2)c2ccc(C(=O)/C=C/c3ccc([N+](=O)[O-])o3)cc2c1=O	470 nM	–
CC(=O)c1ccc2c(c1)c(=O)c(C(=O)NCCOCCO)cn2Cc1ccc(Br)cc1	7140 nM	–
Cc1ccc(Cn2cc(C(=O)NCCOCCO)c(=O)c3cc(C(=O)/C=C/c4ccc([N+](=O)[O-])o4)ccc32)cc1	80 nM	viability at 48 h, 10 µM [2]: 6%; viability at 48 h, 5 µM [3]: 20%; viability at 48 h, 1 µM [4]: 118%; viability at 48 h, 10 µM [5]: 66%; CC50 at 48 h [6]: 3400 nM; viability at 48 h, 1 µM [7]: 105%; Activity (hTERT-BJ): < 25%; selectivity ratio [8]: 42.5; viability at 48 h, 5 µM [9]: 88%
COCCNC(=O)c1cn(Cc2ccc(C)cc2)c2ccc(C(=O)/C=C/c3ccc([N+](=O)[O-])o3)cc2c1=O	120 nM	–
O=C(/C=C/c1ccc([N+](=O)[O-])o1)c1ccc2c(c1)c(=O)c(C(=O)NCCOCCO)cn2Cc1ccccc1	280 nM	–

Reference: ChEMBL document CHEMBL5143512, “Synthesis and in vitro antitrypanosomal evaluation of novel 6-heteroarylidene-substituted quinolone derivatives” (Eur J Med Chem, 2022)
